Laboratory results as given in patent US12064514B2, “Ultrasound-sensitive peptide particles for spatially resolved molecule delivery” (The Penn State Research Foundation, priority 2017, dated 2024).

What was measured:
[1] = test system: green fluorescent protein (GFP); test: screening of fluorine-containing cargo solubilizing agents for GFP dispersion in perfluorocarbon; details: for GFP dispersion efficiency: in PFH, after resuspension in aqueous buffer
Experimental: For each condition, 200 ul of compounds+PFH was aliquoted into an Eppendorf tube containing individually dried GFP stocks (1 uM) for 9 replicates. Each tube was parafilmed, vortexed, placed on VWR tube rotator overnight at 4° C., and then centrifuged for 5 min at 4000 rpm. Next, 100 ul of each sample was aliquoted onto a black bottom 96-well plate for fluorescence scan from 500 to 560. The 96-well plate was then placed in 37° C. overnight to dry the PFH. The dry samples were resuspended in 100 ul PBS and scanned for fluorescence using BioTek Cytation 3 imaging reader. […] Here, PFH is used as a surrogate for the penultimate solvent perfluoro-n-pentane (PFP) used to form the peptisome core, as PFP has a low boiling point and low surface tension, making it difficult to use in these screening experiments.
Fluorine-containing cargo solubilizing agent #6 (perfluorononanoic acid, PNFA) was dissolved at various concentrations in PFH to achieve molar ratios with GFP at 400:1 to 50,000:1 fluorine-containing cargo solubilizing agent-to-GFP. For this molar ratio screening, PFNA was vortexed and sonicated to dissolve into PFH at 0.4, 2, 50, and 100 mM. For each condition, 200 ul of PFNA+PFH was aliquoted into an Eppendorf tube containing individually dried GFP (1 uM) for 9 replicates. Each tube was parafilmed, vortexed, placed on VWR tube rotator overnight at 4° C., and then centrifuged for 5 min at 4000 rpm. Next, 100 ul of each sample was aliquoted onto a black bottom 96-well plate for fluorescence scan from 500 to 560. The 96-well plate was then placed in 37° C. overnight to dry the PFH. The dry samples were resuspended in 100 ul PBS and scanned for fluorescence using BioTek Cytation 3 imaging reader.
For PFH and PFP solvent comparison, 2 mM PFNA was vortexed and sonicated to dissolve into either PFH or PFP on ice. For each condition, 200 ul of adjuvant/PFH or adjuvant/PFP was aliquoted into an Eppendorf tube containing individually dried GFP stocks (1 uM) for 3 replicates. Each tube was parafilmed, vortexed, placed on VWR tube rotator overnight at 4° C., and then centrifuged for 5 min at 4000 rpm. Next, 100 ul of each sample was aliquoted onto a black bottom 96-well plate for fluorescence scan from 500 to 560. The 96-well plate was then placed in 37° C. overnight to dry the PFH and PFP.

[2] = biological target: αVβ3 integrin (Homo sapiens, UniProt P05106+P06756); details: read-out: binding affinity to αVβ3 integrin (IC50, conc. at which 50% of receptor is bound by ligand); cited from earlier work
Sequence of αVβ3 integrin (P06756 31-1048): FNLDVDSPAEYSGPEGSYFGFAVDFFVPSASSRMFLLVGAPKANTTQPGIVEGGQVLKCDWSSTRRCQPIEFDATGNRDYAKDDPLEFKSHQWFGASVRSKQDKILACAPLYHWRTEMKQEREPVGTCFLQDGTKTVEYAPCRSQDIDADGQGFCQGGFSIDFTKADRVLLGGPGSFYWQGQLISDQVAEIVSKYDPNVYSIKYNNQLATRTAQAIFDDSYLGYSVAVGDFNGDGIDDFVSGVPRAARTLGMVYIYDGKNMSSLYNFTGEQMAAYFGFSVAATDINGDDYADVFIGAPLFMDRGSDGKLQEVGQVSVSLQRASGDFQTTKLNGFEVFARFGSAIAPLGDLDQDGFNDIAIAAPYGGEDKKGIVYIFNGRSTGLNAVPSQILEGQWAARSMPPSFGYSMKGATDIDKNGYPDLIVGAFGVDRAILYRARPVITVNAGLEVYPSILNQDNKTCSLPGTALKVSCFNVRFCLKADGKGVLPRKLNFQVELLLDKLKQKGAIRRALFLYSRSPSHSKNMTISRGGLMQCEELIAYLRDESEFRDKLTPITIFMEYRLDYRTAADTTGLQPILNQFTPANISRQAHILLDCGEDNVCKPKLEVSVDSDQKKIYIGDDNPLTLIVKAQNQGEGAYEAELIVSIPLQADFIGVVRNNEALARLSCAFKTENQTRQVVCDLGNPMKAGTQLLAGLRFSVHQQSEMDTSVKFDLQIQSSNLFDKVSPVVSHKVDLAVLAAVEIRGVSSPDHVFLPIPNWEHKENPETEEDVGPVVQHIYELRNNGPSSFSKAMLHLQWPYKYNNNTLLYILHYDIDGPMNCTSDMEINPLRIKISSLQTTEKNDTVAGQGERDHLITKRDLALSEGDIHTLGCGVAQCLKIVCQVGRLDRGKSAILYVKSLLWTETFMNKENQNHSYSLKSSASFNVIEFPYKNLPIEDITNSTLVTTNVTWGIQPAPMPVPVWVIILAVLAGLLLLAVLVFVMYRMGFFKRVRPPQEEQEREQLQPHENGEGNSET
Sequence of αVβ3 integrin (P05106 27-788): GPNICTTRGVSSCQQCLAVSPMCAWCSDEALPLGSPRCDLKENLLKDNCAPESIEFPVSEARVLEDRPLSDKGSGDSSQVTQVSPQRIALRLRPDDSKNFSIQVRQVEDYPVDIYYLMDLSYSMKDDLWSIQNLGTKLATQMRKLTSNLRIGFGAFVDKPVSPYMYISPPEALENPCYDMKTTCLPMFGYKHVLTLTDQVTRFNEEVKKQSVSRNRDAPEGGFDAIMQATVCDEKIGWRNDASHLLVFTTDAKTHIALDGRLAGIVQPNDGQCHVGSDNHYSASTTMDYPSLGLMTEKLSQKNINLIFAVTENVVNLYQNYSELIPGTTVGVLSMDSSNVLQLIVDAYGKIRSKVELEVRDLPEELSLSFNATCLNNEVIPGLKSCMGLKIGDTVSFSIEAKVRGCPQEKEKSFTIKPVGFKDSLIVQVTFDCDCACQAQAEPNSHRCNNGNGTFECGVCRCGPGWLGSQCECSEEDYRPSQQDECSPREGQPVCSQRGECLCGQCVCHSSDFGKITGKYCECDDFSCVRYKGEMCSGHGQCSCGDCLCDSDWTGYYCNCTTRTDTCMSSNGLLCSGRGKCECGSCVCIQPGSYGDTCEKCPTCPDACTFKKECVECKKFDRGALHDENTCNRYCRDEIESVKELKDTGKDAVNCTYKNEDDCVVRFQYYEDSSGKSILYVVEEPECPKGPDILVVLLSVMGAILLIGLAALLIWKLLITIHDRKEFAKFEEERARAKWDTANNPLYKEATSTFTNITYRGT

O=C(O)C(F)(F)C(F)(F)C(F)(F)C(F)(F)C(F)(F)C(F)(F)C(F)(F)C(F)(F)F [Compound 6, perfluorononanoic acid]
protein dispersed within PFH compared to compound 5 [1]: approximately 10 fold
protein dispersion with PFP compared to PFH ([1]; 2000:1 molar ratio): no significant difference
GFP dispersion efficiency [1]: 39.3%
total GFP loading efficiency into PFH ([1]; molar ratios of 2,000 to 10,000:1 agent-to-GFP): ~63%

GRGDS
IC50 [2]: 28 ± 3 nM

GRGDTP
IC50 [2]: 28 ± 5 nM

FC(F)(F)C(F)(F)C(F)(F)C(F)(F)C(F)(F)C(F)(F)C(F)(F)C(F)(F)C(F)(F)C(F)(F)C(F)(F)C(F)(F)C(F)(F)C(F)(F)F [Compound 2, perfluoroteradecane]
GFP dispersion efficiency [1]: 5.1%

RGDS
IC50 [2]: 45 ± 5 nM

GRGDNP
IC50 [2]: 45 ± 12 nM

RGD
IC50 [2]: 89 ± 12 nM

O=C(O)C(F)(F)C(F)(F)C(F)(F)C(F)(F)F [Compound 5, perfluoropentanoic acid]
GFP dispersion efficiency [1]: 4.3%

GRGD
IC50 [2]: 55 ± 7 nM

GRGDSPK
IC50 [2]: 12.2 ± 0.1 nM
